This passage reports MIC results from patent US20170260178A1 (SPERO GYRASE, INC., priority 2012, published 2017).

In test [1] the test system is S. aureus (ATCC 29213). Description: Bacterial assay: MIC against S. aureus. The following applies: Staphylococcus aureus, ATCC29213, read-out: minimal inhibitory concentration (MIC). The class given is cell-based, Staphylococcus aureus.
The subject of test [2] is S. pyogenes (ATCC 51339). Description: Bacterial assay: MIC against S. pyogenes. The class given is cell-based, Streptococcus pyogenes. The note with it: Streptococcus pyogenes, ATCC51339, read-out: minimal inhibitory concentration (MIC).
Test [3] concerns H. influenzae (ATCC 49247). Description: Bacterial assay: MIC against H. influenzae. The class given is cell-based. The note with it: Haemophilus influenzae, ATCC49247; H. influenzae ATCC 49247; read-out: minimal inhibitory concentration (MIC).

In brackets after ≈: the same amount, converted by molar mass.

Consider `CCNC(=O)Nc1nc2cc(-c3cnc([C@@H](O)[C@H](C)O)nc3)cc(-c3ccccn3)c2s1` (relative stereo) [Compound 7, 1-[5-[2-[(1S*,2R*)-1,2-dihydroxypropyl]pyrimidin-5-yl]-7-(2-pyridyl)-1,3-benzothiazol-2-yl]-3-ethyl-urea], for which the figures for the MIC in test [1], in test [2] and in test [3] were at most 1 µg/mL, at most 1 µg/mL and at most 2 µg/mL, respectively.
`CCNC(=O)Nc1nc2cc(-c3cnc([C@@]4(O)CCOC[C@H]4O)nc3)cc(-c3ccccn3)c2s1` (relative stereo) [Compound 8, 1-[5-[2-[(3R*,4S*)-3,4-dihydroxytetrahydropyran-4-yl]pyrimidin-5-yl]-7-(2-pyridyl)-1,3-benzothiazol-2-yl]-3-ethyl-urea]: the MIC in test [1] is at most 1 µg/mL; in test [2], at most 1 µg/mL; in test [3] it was at most 2 µg/mL.
On to `CCNC(=O)Nc1nc2cc(-c3cnc([C@@H](O)[C@@H](C)O)nc3)cc(-c3ccccn3)c2s1` (relative stereo) [Compound 118, 1-[5-[2-[(1R*,2R*)-1,2-dihydroxypropyl]pyrimidin-5-yl]-7-(2-pyridyl)-1,3-benzothiazol-2-yl]-3-ethyl-urea], for which the figures for the MIC in test [1], in test [2] and in test [3] were at most 1 µg/mL, at most 1 µg/mL and at most 2 µg/mL, respectively.
Turning to `CCNC(=O)Nc1nc2cc(-c3cnc([C@@H](O)[C@H](O)C(F)F)nc3)cc(-c3ccccn3)c2s1` (relative stereo) [Compound 130, 1-[5-[2-[(1R*,2S*)-3,3-difluoro-1,2-dihydroxy-propyl]pyrimidin-5-yl]-7-(2-pyridyl)-1,3-benzothiazol-2-yl]-3-ethyl-urea], the MIC was at most 1 µg/mL in test [1], at most 1 µg/mL in test [2] and at most 2 µg/mL in test [3].
For the compound `CCNC(=O)Nc1nc2cc(-c3cnc([C@@H](O)[C@H](O)C(F)(F)F)nc3)cc(-c3ccccn3)c2s1` (relative stereo) [Compound 131, 1-ethyl-3-[7-(2-pyridyl)-5-[2-[(1R*,2S*)-3,3,3-trifluoro-1,2-dihydroxy-propyl]pyrimidin-5-yl]-1,3-benzothiazol-2-yl]urea], the MIC is at most 1 µg/mL in test [1], at most 1 µg/mL in test [2] and at most 2 µg/mL in test [3].
On to `CCNC(=O)Nc1nc2cc(-c3cnc(C(C)O)cn3)cc(-c3ccccn3)c2s1` (stereo not shown) [Compound 6, 1-ethyl-3-[5-[5-(1-hydroxyethyl)pyrazin-2-yl]-7-(2-pyridyl)-1,3-benzothiazol-2-yl]urea], for which the MIC in test [1] is at most 1 µg/mL; in test [2] it was at most 1 µg/mL; in test [3], at most 2 µg/mL.
`CCNC(=O)Nc1nc2cc(-c3cnc(C(C)(C)O)nc3)cc(-c3ncccn3)c2s1` [Compound 10, 1-ethyl-3-[5-[2-(1-hydroxy-1-methyl-ethyl)pyrimidin-5-yl]-7-pyrimidin-2-yl-1,3-benzothiazol-2-yl]urea]: the results for the MIC in test [1], in test [2] and in test [3] were at most 1 µg/mL, at most 1 µg/mL and at most 2 µg/mL, respectively.
Take `CCNC(=O)Nc1nc2cc(-c3cnc(C(C)O)nc3)cc(-c3cc(CSC)ccn3)c2s1` (stereo not shown) [Compound 15, 1-ethyl-3-[5-[2-(1-hydroxyethyl)pyrimidin-5-yl]-7-[4-(methylsulfanylmethyl)-2-pyridyl]-1,3-benzothiazol-2-yl]urea]: the MIC was at most 1 µg/mL in test [1], at most 1 µg/mL in test [2] and at most 2 µg/mL in test [3].
On to `CCNC(=O)Nc1nc2cc(-c3cnc([C@@H](C)O)nc3)cc(-c3ccccn3)c2s1` [Compound 22, 1-ethyl-3-[5-[2-[(1R)-1-hydroxyethyl]pyrimidin-5-yl]-7-(2-pyridyl)-1,3-benzothiazol-2-yl]urea], for which the MIC is at most 1 µg/mL in test [1], at most 1 µg/mL in test [2] and at most 2 µg/mL in test [3].
Consider `CCNC(=O)Nc1nc2cc(-c3cnc([C@H](C)O)nc3)cc(-c3ccccn3)c2s1` [Compound 23, 1-ethyl-3-[5-[2-[(1S)-1-hydroxyethyl]pyrimidin-5-yl]-7-(2-pyridyl)-1,3-benzothiazol-2-yl]urea], for which the MIC in test [1] was at most 1 µg/mL; in test [2] it was at most 1 µg/mL; in test [3] it was at most 2 µg/mL.
On to `CCNC(=O)Nc1nc2cc(-c3ccc(C(C)(C)O)nc3)cc(-c3ccccn3)c2s1` [Compound 27, 1-ethyl-3-[5-[6-(1-hydroxy-1-methyl-ethyl)-3-pyridyl]-7-(2-pyridyl)-1,3-benzothiazol-2-yl]urea], for which the MIC in test [1] was at most 1 µg/mL; in test [2] it was at most 1 µg/mL; in test [3] it was at most 2 µg/mL.
Turning to `CCNC(=O)Nc1nc2cc(-c3cnc(C(C)(C)O)nc3)cc(-c3cc(CN4CCOCC4)ccn3)c2s1` [Compound 28, 1-ethyl-3-[5-[2-(1-hydroxy-1-methyl-ethyl)pyrimidin-5-yl]-7-[4-(morpholinomethyl)-2-pyridyl]-1,3-benzothiazol-2-yl]urea], the results for the MIC in test [1], in test [2] and in test [3] were at most 1 µg/mL, at most 1 µg/mL and at most 2 µg/mL, respectively.
For the compound `CCNC(=O)Nc1nc2cc(-c3cnc(C(C)(C)O)nc3)cc(-c3cc(CN4CC(O)C4)ccn3)c2s1` [Compound 30, 1-ethyl-3-[7-[4-[(3-hydroxyazetidin-1-yl)methyl]-2-pyridyl]-5-[2-(1-hydroxy-1-methyl-ethyl)pyrimidin-5-yl]-1,3-benzothiazol-2-yl]urea], the MIC was at most 1 µg/mL in test [1], at most 1 µg/mL in test [2] and at most 2 µg/mL in test [3].
Turning to `CCNC(=O)Nc1nc2cc(-c3cnc(C(C)(C)O)nc3)cc(-c3cc(CN4CC(OC)C4)ccn3)c2s1` [Compound 31, 1-ethyl-3-[5-[2-(1-hydroxy-1-methyl-ethyl)pyrimidin-5-yl]-7-[4-[(3-methoxyazetidin-1-yl)methyl]-2-pyridyl]-1,3-benzothiazol-2-yl]urea], the MIC is at most 1 µg/mL in test [1], at most 1 µg/mL in test [2] and at most 2 µg/mL in test [3].
For `CCNC(=O)Nc1nc2cc(-c3cnc(C(C)(C)O)nc3)cc(-c3cc(OCCN4CCOCC4)ccn3)c2s1` [Compound 32, 1-ethyl-3-[5-[2-(1-hydroxy-1-methyl-ethyl)pyrimidin-5-yl]-7-[4-(2-morpholinoethoxy)-2-pyridyl]-1,3-benzothiazol-2-yl]urea], the MIC in test [1] is at most 1 µg/mL; in test [2], at most 1 µg/mL; in test [3], at most 2 µg/mL.
Consider `CCNC(=O)Nc1nc2cc(-c3cnc(C(C)(C)O)nc3)cc(-c3cc(CN4CC[C@H](F)C4)ccn3)c2s1` [Compound 35, 1-ethyl-3-[7-[4-[[(3S)-3-fluoropyrrolidin-1-yl]methyl]-2-pyridyl]-5-[2-(1-hydroxy-1-methyl-ethyl)pyrimidin-5-yl]-1,3-benzothiazol-2-yl]urea], for which the MIC in test [1] is at most 1 µg/mL; in test [2] it was at most 1 µg/mL; in test [3], at most 2 µg/mL.
On to `CCNC(=O)Nc1nc2cc(-c3cnc(C(C)(C)O)nc3)cc(-c3cc(CN4CC[S+]([O-])CC4)ccn3)c2s1` [Compound 188, 1-ethyl-3-[5-[2-(1-hydroxy-1-methyl-ethyl)pyrimidin-5-yl]-7-[4-[(1-oxo-1,4-thiazinan-4-yl)methyl]-2-pyridyl]-1,3-benzothiazol-2-yl]urea], for which the MIC in test [1] and in test [2] was at most 1 µg/mL in each case.
For the compound `CCNC(=O)Nc1nc2cc(-c3cnc(C(C)(C)O)nc3)cc(-c3cc(CN4CCS(=O)(=O)CC4)ccn3)c2s1` [Compound 191, 1-[7-[4-[(1,1-dioxo-1,4-thiazinan-4-yl)methyl]-2-pyridyl]-5-[2-(1-hydroxy-1-methyl-ethyl)pyrimidin-5-yl]-1,3-benzothiazol-2-yl]-3-ethyl-urea], the MIC in test [1] and in test [2] was at most 1 µg/mL each time.
`CCNC(=O)Nc1nc2cc(-c3cnc(C(C)(C)O)nc3)c(OCc3ccc(OC)c(OC)c3)cc2s1` [Compound 192, 1-[6-[(3,4-dimethoxyphenyl)methoxy]-5-[2-(1-hydroxy-1-methyl-ethyl)pyrimidin-5-yl]-1,3-benzothiazol-2-yl]-3-ethyl-urea]: the MIC in test [1] and in test [2] was at most 1 µg/mL in each case.
In the case of `CCNC(=O)Nc1nc2cc(-c3cnc(C(C)O)nc3)c(OCC3CCCO3)cc2s1` (stereo not shown) [Compound 193, 1-ethyl-3-[5-[2-[1-hydroxyethyl]pyrimidin-5-yl]-6-(tetrahydrofuran-2-ylmethoxy)-1,3-benzothiazol-2-yl]urea], the MIC in test [1] is at most 1 µg/mL; in test [2], 2 µg/mL (≈ 4.51 µM).
The matching figures for `CCNC(=O)Nc1nc2cc(-c3cncc(C(C)O)c3)cc(-c3ccccn3)c2s1` (stereo not shown) [Compound 197, 1-ethyl-3-[5-[5-(1-hydroxyethyl)-3-pyridyl]-7-(2-pyridyl)-1,3-benzothiazol-2-yl]urea]: at most 1 µg/mL and at most 1 µg/mL.
For `[2H]C1([2H])OC([2H])([2H])C([2H])([2H])N(Cc2ccnc(-c3cc(-c4cnc(C(C)(C)O)nc4)cc4nc(NC(=O)NCC)sc34)c2)C1([2H])[2H]` [Compound 198, 1-ethyl-3-[5-[2-(1-hydroxy-1-methyl-ethyl)pyrimidin-5-yl]-7-[4-[(2,2,3,3,5,5,6,6-octadeuteriomorpholin-4-yl)methyl]-2-pyridyl]-1,3-benzothiazol-2-yl]urea], the results for the MIC in test [1] and in test [3] were at most 1 µg/mL and at most 2 µg/mL, respectively.
In the case of `CCNC(=O)Nc1nc2cc(-c3cnc(C(C)(C)O)nc3)c(OCCN3CCOCC3)cc2s1` [Compound 199, 1-ethyl-3-[5-[2-(1-hydroxy-1-methyl-ethyl)pyrimidin-5-yl]-6-(2-morpholinoethoxy)-1,3-benzothiazol-2-yl]urea], the MIC in test [1] and in test [2] was 2 µg/mL (≈ 4.11 µM) in each case.
With `CCNC(=O)Nc1nc2cc(-c3cnc([C@@H](C)O)nc3)cc(-c3ccc(OC)cn3)c2s1` [Compound 202, 1-ethyl-3-[5-[2-[(1R)-1-hydroxyethyl]pyrimidin-5-yl]-7-(5-methoxy-2-pyridyl)-1,3-benzothiazol-2-yl]urea], the MIC in test [1] was at most 1 µg/mL; in test [3], at most 2 µg/mL.
